According to US20250327028A1, “ENGINEERED PLATELETS AS TARGETED PROTEIN DEGRADERS” (Wisconsin Alumni Research Foundation, priority 2024, published 2025):

Columns and labels:
BRD4 [1] = target: T1, BRD4 (Mus musculus, UniProt Q9ESU6); assay: Immunoblot analysis of BRD4 degradation in 4T1 cells after free HAC treatment; assay type: cell-based, murine; conditions: 4T1 cells, lower or higher effective concentrations, 12 h
T1 construct: endogenous in cells; host or cells: 4T1
Description: (§1) Immunoblot analysis: Immunoblot analysis was used to evaluate the expression of BRD4, HSP90, HSP90a, and PD-L1 in 4T1, WT MDA-MB-231, HSP90α-KO MDA-MB-231 or PEA-10 cells after various treatments and also served as the detection method for IP or co-IP experiments. The procedures for preparing IP or co-IP samples were indicated in the relevant experimental parts.
(§2) Sample preparation for various cancer cells after free HAC treatment: Various cells, including 4T1, WT MDA-MB-231, HSP90α-KO MDA-MB-231, or PEA-10 cells, were seeded in 6-well culture plates with a density of 5×10^4 cells in each well and cultured for 24 h. Then, if HAI pretreatment was performed, the cells were incubated in the HAI-containing blank medium at different concentrations for 2 h and washed with PBS twice before the following treatments. The medium in the corresponding wells was replaced with 1 mL of blank medium containing the DMSO vehicle, HACs, or the combinations of various free ligands at the predetermined concentrations. After incubation for the indicated time points, cells were washed with PBS and lysed on ice with the relevant lysis buffer containing PMSF (1 mM) and the phosphatase inhibitor cocktail for 30 min. As for the conditioned medium (CM), the culturing complete medium of the corresponding cancer cells in each well was collected after 24-h incubation and subjected to centrifugation at 2000 rpm for 5 min to obtain the supernatant. The filtrate of the supernatants was collected following filtration over a 0.45 μm filter, serving as the CM. Regarding the cell samples for BRD4 detection, the lysis buffer containing HEPES-KOH (pH=7.5, 10 mM), NaCl (500 mM), EDTA (5 mM), NP-40 (1%), and SDS (0.1%) was used with the indicated PMSF and phosphatase inhibitor cocktail. As for PD-L1 detection, RIPA buffer (Thermo Fisher Scientific/J63306.AP) was used with the indicated PMSF and phosphatase inhibitor cocktail.
General procedures for immunoblot analysis: After a 30-min lysis, the lysates were centrifuged at 10,000 g for 10 minutes at 4° C., and the corresponding supernatants were collected, followed by quantification of the total proteins in the supernatant through the BCA assay. Afterward, the proteins in the supernatant were mixed with the loading buffer and heated at 95° C. for 15 min. Equal amounts of proteins from different samples ([…]) were loaded into the Bis-Tris gel formulated with Bis-Tis buffer, 30% acrylamide/Bis, 10% ammonium persulfate (APS) solution, and TEMED. The separated proteins were transferred to polyvinylidene fluoride (PVDF) membranes before the membranes were blocked with 5% nonfat milk in PBS-T. Next, the PVDF membranes were incubated with primary antibodies overnight at 4° C., if necessary, followed by the incubation with the goat-anti-rabbit IgG H & L (HRP) secondary antibodies at room temperature for 2 h. Finally, the bands were treated with electrochemiluminescence (ECL) western blot substrate, detected by the iBright™ imaging system and quantified with ImageJ software. 8% Bis-Tris gels were used for BRD4 detection, and 10% gels were adopted to analyze PD-L1.

BRD4 [2] = target: T2, BRD4 (Homo sapiens, UniProt O60885); assay: Immunoblot analysis of BRD4 degradation in WT MDA-MB-231 cells after free HAC treatment; assay type: cell-based; conditions: lower or higher effective concentrations, 12 h
T2 construct: endogenous in cells; host or cells: WT MDA-MB-231 (ATCC)
Description: as §1
as §2, with “Regarding the cell samples for BRD4 detection, the lysis buffer containing HEPES-KOH (pH=7.5, 10 mM), NaCl (500 mM), EDTA (5 mM), NP-40 (1%), and SDS (0.1%) was used with the indicated PMSF and phosphatase inhibitor cocktail. As for PD-L1 detection, RIPA buffer (Thermo Fisher Scientific/J63306.AP) was used with the indicated PMSF and phosphatase inhibitor cocktail.” left out
General procedures for immunoblot analysis: After a 30-min lysis, the lysates were centrifuged at 10,000 g for 10 minutes at 4° C., and the corresponding supernatants were collected, followed by quantification of the total proteins in the supernatant through the BCA assay. […] Finally, the bands were treated with electrochemiluminescence (ECL) western blot substrate, detected by the iBright™ imaging system and quantified with ImageJ software. […]

Cc1sc2c(c1C)C(c1ccc(Cl)cc1)=N[C@H](CC(=O)NCc1cn(CCCC(=O)N(CC#N)S(=O)(=O)c3ccc(C(=O)NCCCn4c(Sc5cc6c(cc5I)OCO6)nc5c(N)ncnc54)cc3)nn1)c1nnc(C)n1-2 [iHACepi, (R)—N-(3-(6-amino-8-((6-iodobenzo[d][1,3]dioxol-5-yl)thio)-9H-purin-9-yl)propyl)-4-(N-(4-(4-((2-(4-(4-chlorophenyl)-2,3,9-trimethyl-6H-thieno[3,2-f][1,2,4]triazolo[4,3-a][1,4]diazepin-6-yl)acetamido)methyl)-1H-1,2,3-triazol-1-yl)butanoyl)-N-(cyanomethyl)sulfamoyl)benzamide]
BRD4 degradation compared to iHAC (BRD4 [1]): almost no substantial BRD4 degradation | BRD4 degradation compared to iHAC (BRD4 [2]): almost no substantial BRD4 degradation
